Results from the supplement of paper PMC4862054.

Test system: CAL-120
Assay: normalised response (% of control), CellTox Green; higher = less cell death (100 = DMSO, 0 = benzethonium chloride kill control)
Settings: incubation time: 72 h
Method in brief: (§1)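 Plates were normalised with 0.1 % DMSO as 100 and a positive kill control as 0. Breast cancer cell lines in 20 µl suspension had been seeded into 384-well plates with compound at 5 concentrations in 10-fold steps over a compound-specific 10,000-fold range, incubated 72 h, and read for CellTox Green fluorescence (485/520 nm) followed by CellTiter-Glo luminescence. Each value is the normalised signal at a single concentration.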

SMILES	normalised response [%]
Cc1cc(C(C)Nc2ccccc2)c2nc(N3CCOCC3)cc(=O)n2c1 (stereo unspecified) [TGX-221] (1000 nM)	99.8
CCCC(CCC)C(=O)O [Valproic acid] (100000 nM)	107
COc1cc(Nc2ncc(F)c(Nc3ccc4c(n3)NC(=O)C(C)(C)O4)n2)cc(OC)c1OC [Tamatinib] (1000 nM)	105
Nc1nccc(-c2c(-c3ccc(F)cc3)ncn2C2CCCCC2)n1 (1000 nM)	107
CN(c1ccccc1CNc1nc(Nc2ccc3c(c2)CC(=O)N3)ncc1C(F)(F)F)S(C)(=O)=O (1000 nM)	99.7
FC(F)c1nc2ccccc2n1-c1nc(N2CCOCC2)nc(N2CCOCC2)n1 [ZSTK474] (1000 nM)	107
C[C@@H]1CCN(C(=O)CC#N)C[C@@H]1N(C)c1ncnc2[nH]ccc12 [Tofacitinib] (500 nM)	102
COC(=O)C[C@](O)(CCCC(C)(C)O)C(=O)O[C@@H]1C(OC)=C[C@]23CCCN2CCc2cc4c(cc2[C@H]13)OCO4 [Omacetaxine] (1000 nM)	91.4
CS(=O)(=O)CCNCc1ccc(-c2ccc3ncnc(Nc4ccc(OCc5cccc(F)c5)c(Cl)c4)c3c2)o1 [Lapatinib] (100 nM)	96.9

Test system: Hs578T
Assay: as above
Settings: incubation time: 72 h
Method in brief: as §1

SMILES	normalised response [%]
Cc1cc(C(C)Nc2ccccc2)c2nc(N3CCOCC3)cc(=O)n2c1 (stereo unspecified) [TGX-221] (1000 nM)	97.5
CCCC(CCC)C(=O)O [Valproic acid] (100000 nM)	63.5
COc1cc(Nc2ncc(F)c(Nc3ccc4c(n3)NC(=O)C(C)(C)O4)n2)cc(OC)c1OC [Tamatinib] (1000 nM)	108
CN(c1ccccc1CNc1nc(Nc2ccc3c(c2)CC(=O)N3)ncc1C(F)(F)F)S(C)(=O)=O (1000 nM)	65.3
FC(F)c1nc2ccccc2n1-c1nc(N2CCOCC2)nc(N2CCOCC2)n1 [ZSTK474] (1000 nM)	104
C[C@@H]1CCN(C(=O)CC#N)C[C@@H]1N(C)c1ncnc2[nH]ccc12 [Tofacitinib] (500 nM)	115
COC(=O)C[C@](O)(CCCC(C)(C)O)C(=O)O[C@@H]1C(OC)=C[C@]23CCCN2CCc2cc4c(cc2[C@H]13)OCO4 [Omacetaxine] (1000 nM)	60.2

Test system: MCF-10A
Assay: as above
Settings: incubation time: 72 h
Method in brief: as §1

SMILES	normalised response [%]
Cc1cc(C(C)Nc2ccccc2)c2nc(N3CCOCC3)cc(=O)n2c1 (stereo unspecified) [TGX-221] (1000 nM)	105
CCCC(CCC)C(=O)O [Valproic acid] (100000 nM)	53
COc1cc(Nc2ncc(F)c(Nc3ccc4c(n3)NC(=O)C(C)(C)O4)n2)cc(OC)c1OC [Tamatinib] (1000 nM)	105
Nc1nccc(-c2c(-c3ccc(F)cc3)ncn2C2CCCCC2)n1 (1000 nM)	109
CN(c1ccccc1CNc1nc(Nc2ccc3c(c2)CC(=O)N3)ncc1C(F)(F)F)S(C)(=O)=O (1000 nM)	101
FC(F)c1nc2ccccc2n1-c1nc(N2CCOCC2)nc(N2CCOCC2)n1 [ZSTK474] (1000 nM)	57.7
C[C@@H]1CCN(C(=O)CC#N)C[C@@H]1N(C)c1ncnc2[nH]ccc12 [Tofacitinib] (500 nM)	64.1
COC(=O)C[C@](O)(CCCC(C)(C)O)C(=O)O[C@@H]1C(OC)=C[C@]23CCCN2CCc2cc4c(cc2[C@H]13)OCO4 [Omacetaxine] (1000 nM)	33.5
CS(=O)(=O)CCNCc1ccc(-c2ccc3ncnc(Nc4ccc(OCc5cccc(F)c5)c(Cl)c4)c3c2)o1 [Lapatinib] (100 nM)	109

Test system: CAL-85-1
Assay: as above
Settings: incubation time: 72 h
Method in brief: as §1

SMILES	normalised response [%]
Cc1cc(C(C)Nc2ccccc2)c2nc(N3CCOCC3)cc(=O)n2c1 (stereo unspecified) [TGX-221] (1000 nM)	106
CCCC(CCC)C(=O)O [Valproic acid] (100000 nM)	107
COc1cc(Nc2ncc(F)c(Nc3ccc4c(n3)NC(=O)C(C)(C)O4)n2)cc(OC)c1OC [Tamatinib] (1000 nM)	103
Nc1nccc(-c2c(-c3ccc(F)cc3)ncn2C2CCCCC2)n1 (1000 nM)	104
CN(c1ccccc1CNc1nc(Nc2ccc3c(c2)CC(=O)N3)ncc1C(F)(F)F)S(C)(=O)=O (1000 nM)	99.4
FC(F)c1nc2ccccc2n1-c1nc(N2CCOCC2)nc(N2CCOCC2)n1 [ZSTK474] (1000 nM)	101
C[C@@H]1CCN(C(=O)CC#N)C[C@@H]1N(C)c1ncnc2[nH]ccc12 [Tofacitinib] (500 nM)	102
COC(=O)C[C@](O)(CCCC(C)(C)O)C(=O)O[C@@H]1C(OC)=C[C@]23CCCN2CCc2cc4c(cc2[C@H]13)OCO4 [Omacetaxine] (1000 nM)	4.24
CS(=O)(=O)CCNCc1ccc(-c2ccc3ncnc(Nc4ccc(OCc5cccc(F)c5)c(Cl)c4)c3c2)o1 [Lapatinib] (100 nM)	96.8

Test system: MDA-MB-436
Assay: as above
Settings: incubation time: 72 h
Method in brief: as §1

SMILES	normalised response [%]
Cc1cc(C(C)Nc2ccccc2)c2nc(N3CCOCC3)cc(=O)n2c1 (stereo unspecified) [TGX-221] (1000 nM)	90.5
CCCC(CCC)C(=O)O [Valproic acid] (100000 nM)	109
COc1cc(Nc2ncc(F)c(Nc3ccc4c(n3)NC(=O)C(C)(C)O4)n2)cc(OC)c1OC [Tamatinib] (1000 nM)	94.2
Nc1nccc(-c2c(-c3ccc(F)cc3)ncn2C2CCCCC2)n1 (1000 nM)	81.5
CN(c1ccccc1CNc1nc(Nc2ccc3c(c2)CC(=O)N3)ncc1C(F)(F)F)S(C)(=O)=O (1000 nM)	104
FC(F)c1nc2ccccc2n1-c1nc(N2CCOCC2)nc(N2CCOCC2)n1 [ZSTK474] (1000 nM)	85.9
C[C@@H]1CCN(C(=O)CC#N)C[C@@H]1N(C)c1ncnc2[nH]ccc12 [Tofacitinib] (500 nM)	82.4
COC(=O)C[C@](O)(CCCC(C)(C)O)C(=O)O[C@@H]1C(OC)=C[C@]23CCCN2CCc2cc4c(cc2[C@H]13)OCO4 [Omacetaxine] (1000 nM)	104
CS(=O)(=O)CCNCc1ccc(-c2ccc3ncnc(Nc4ccc(OCc5cccc(F)c5)c(Cl)c4)c3c2)o1 [Lapatinib] (100 nM)	91.4

Test system: BT-549
Assay: as above
Settings: incubation time: 72 h
Method in brief: as §1

SMILES	normalised response [%]
Cc1cc(C(C)Nc2ccccc2)c2nc(N3CCOCC3)cc(=O)n2c1 (stereo unspecified) [TGX-221] (1000 nM)	92.6
CCCC(CCC)C(=O)O [Valproic acid] (100000 nM)	95.3
COc1cc(Nc2ncc(F)c(Nc3ccc4c(n3)NC(=O)C(C)(C)O4)n2)cc(OC)c1OC [Tamatinib] (1000 nM)	90.7
Nc1nccc(-c2c(-c3ccc(F)cc3)ncn2C2CCCCC2)n1 (1000 nM)	109
CN(c1ccccc1CNc1nc(Nc2ccc3c(c2)CC(=O)N3)ncc1C(F)(F)F)S(C)(=O)=O (1000 nM)	116
FC(F)c1nc2ccccc2n1-c1nc(N2CCOCC2)nc(N2CCOCC2)n1 [ZSTK474] (1000 nM)	95.5
C[C@@H]1CCN(C(=O)CC#N)C[C@@H]1N(C)c1ncnc2[nH]ccc12 [Tofacitinib] (500 nM)	129
COC(=O)C[C@](O)(CCCC(C)(C)O)C(=O)O[C@@H]1C(OC)=C[C@]23CCCN2CCc2cc4c(cc2[C@H]13)OCO4 [Omacetaxine] (1000 nM)	52.6
CS(=O)(=O)CCNCc1ccc(-c2ccc3ncnc(Nc4ccc(OCc5cccc(F)c5)c(Cl)c4)c3c2)o1 [Lapatinib] (100 nM)	126

Test system: HCC1143
Assay: as above
Settings: incubation time: 72 h
Method in brief: as §1

SMILES	normalised response [%]
Cc1cc(C(C)Nc2ccccc2)c2nc(N3CCOCC3)cc(=O)n2c1 (stereo unspecified) [TGX-221] (1000 nM)	90.6
CCCC(CCC)C(=O)O [Valproic acid] (100000 nM)	110
COc1cc(Nc2ncc(F)c(Nc3ccc4c(n3)NC(=O)C(C)(C)O4)n2)cc(OC)c1OC [Tamatinib] (1000 nM)	119
Nc1nccc(-c2c(-c3ccc(F)cc3)ncn2C2CCCCC2)n1 (1000 nM)	120
CN(c1ccccc1CNc1nc(Nc2ccc3c(c2)CC(=O)N3)ncc1C(F)(F)F)S(C)(=O)=O (1000 nM)	71.2
FC(F)c1nc2ccccc2n1-c1nc(N2CCOCC2)nc(N2CCOCC2)n1 [ZSTK474] (1000 nM)	77.2
C[C@@H]1CCN(C(=O)CC#N)C[C@@H]1N(C)c1ncnc2[nH]ccc12 [Tofacitinib] (500 nM)	98
COC(=O)C[C@](O)(CCCC(C)(C)O)C(=O)O[C@@H]1C(OC)=C[C@]23CCCN2CCc2cc4c(cc2[C@H]13)OCO4 [Omacetaxine] (1000 nM)	108

Test system: BT-474
Assay: as above
Settings: incubation time: 72 h
Method in brief: as §1

SMILES	normalised response [%]
Cc1cc(C(C)Nc2ccccc2)c2nc(N3CCOCC3)cc(=O)n2c1 (stereo unspecified) [TGX-221] (1000 nM)	95.7
CCCC(CCC)C(=O)O [Valproic acid] (100000 nM)	98.1
COc1cc(Nc2ncc(F)c(Nc3ccc4c(n3)NC(=O)C(C)(C)O4)n2)cc(OC)c1OC [Tamatinib] (1000 nM)	99.7
Nc1nccc(-c2c(-c3ccc(F)cc3)ncn2C2CCCCC2)n1 (1000 nM)	102
CN(c1ccccc1CNc1nc(Nc2ccc3c(c2)CC(=O)N3)ncc1C(F)(F)F)S(C)(=O)=O (1000 nM)	101
FC(F)c1nc2ccccc2n1-c1nc(N2CCOCC2)nc(N2CCOCC2)n1 [ZSTK474] (1000 nM)	90.7
C[C@@H]1CCN(C(=O)CC#N)C[C@@H]1N(C)c1ncnc2[nH]ccc12 [Tofacitinib] (500 nM)	104
COC(=O)C[C@](O)(CCCC(C)(C)O)C(=O)O[C@@H]1C(OC)=C[C@]23CCCN2CCc2cc4c(cc2[C@H]13)OCO4 [Omacetaxine] (1000 nM)	93.7
CS(=O)(=O)CCNCc1ccc(-c2ccc3ncnc(Nc4ccc(OCc5cccc(F)c5)c(Cl)c4)c3c2)o1 [Lapatinib] (100 nM)	96

Test system: DU-4475
Assay: as above
Settings: incubation time: 72 h
Method in brief: as §1

SMILES	normalised response [%]
Cc1cc(C(C)Nc2ccccc2)c2nc(N3CCOCC3)cc(=O)n2c1 (stereo unspecified) [TGX-221] (1000 nM)	96.2
CCCC(CCC)C(=O)O [Valproic acid] (100000 nM)	105
COc1cc(Nc2ncc(F)c(Nc3ccc4c(n3)NC(=O)C(C)(C)O4)n2)cc(OC)c1OC [Tamatinib] (1000 nM)	100
Nc1nccc(-c2c(-c3ccc(F)cc3)ncn2C2CCCCC2)n1 (1000 nM)	107
CN(c1ccccc1CNc1nc(Nc2ccc3c(c2)CC(=O)N3)ncc1C(F)(F)F)S(C)(=O)=O (1000 nM)	97.4
FC(F)c1nc2ccccc2n1-c1nc(N2CCOCC2)nc(N2CCOCC2)n1 [ZSTK474] (1000 nM)	102
C[C@@H]1CCN(C(=O)CC#N)C[C@@H]1N(C)c1ncnc2[nH]ccc12 [Tofacitinib] (500 nM)	101
COC(=O)C[C@](O)(CCCC(C)(C)O)C(=O)O[C@@H]1C(OC)=C[C@]23CCCN2CCc2cc4c(cc2[C@H]13)OCO4 [Omacetaxine] (1000 nM)	97.7
CS(=O)(=O)CCNCc1ccc(-c2ccc3ncnc(Nc4ccc(OCc5cccc(F)c5)c(Cl)c4)c3c2)o1 [Lapatinib] (100 nM)	98.3

Test system: HCC1599
Assay: as above
Settings: incubation time: 72 h
Method in brief: as §1

SMILES	normalised response [%]
Cc1cc(C(C)Nc2ccccc2)c2nc(N3CCOCC3)cc(=O)n2c1 (stereo unspecified) [TGX-221] (1000 nM)	101
CCCC(CCC)C(=O)O [Valproic acid] (100000 nM)	101
COc1cc(Nc2ncc(F)c(Nc3ccc4c(n3)NC(=O)C(C)(C)O4)n2)cc(OC)c1OC [Tamatinib] (1000 nM)	103
